From patent US6277847A, “Herbicidal isoindolinonyl-and 3,4-dihydroisoquinolonyl-substituted heterocycles” (FMC Corporation, priority 2000, dated 2001)

How the values were obtained:
Assay type in all cases: in vivo
[1] = tested on: soybean (Glycine max -- var. Winchester); test: post-emergence herbicidal activity, soybean; conditions: 1 Kg/Ha, about fourteen days, read-out: post-emergence herbicidal activity (% control) SOY
Description: (§1) This example sets forth the methods of herbicidal testing conducted on the specific compounds set forth below. Specifically, the compounds referenced below were tested for pre- and post-emergence herbicidal activity using a variety of crops and weeds. The test plants include, but are not limited to, soybean (Glycine max -- var. Winchester), field corn (Zea mays var. Pioneer 3732), wheat (Triticum aestivum var. Lew), morningglory (Ipomea lacunosa or Ipomea hederacea), velvetleaf (Abutilon theophrasti), green foxtail (Setaria viridis), Johnsongrass (Sorghum halepense), blackgrass (Aloepecurus myosuroides), common chickweed (Stellaria media), and common cocklebur (Xanthium strumarium L.).
(§2) In the post-emergence test, seeds of the plant species named above were planted in flats containing the appropriate soil mixture where they were maintained to allow the seeds to germinate. When the plants in these flats reached the proper stage of growth, flats for the pre-emergence tests were planted in a like manner. The flats containing the post-emergence and pre-emergence test plant species were then sprayed with an appropriately concentrated water/acetone solution of test compound. Once treated the flats were maintained, along with untreated controls, for about fourteen days. All treated plants were then examined for phytotoxicity, which was expressed as percent control where 0 is no effect and 100 is complete control. Effective rates of application for the compounds of the present invention range from 0.001 to 3 kg/ha, more likely from […] to 1 Kg/ha.
(§3) Herbicidal activity data at selected application rates are in Tables 4 and 5. The test compounds are identified by numbers correspond to those in Table 1.
(§4) SOY is soybean, WHT is wheat, CRN is corn, ABUTH is velvetleaf, IPOSS is
(§5) morningglory, STEME is chickweed, XANPE is cocklebur, ALOMY is blackgrass,
(§6) Rate of application of test compound is 1 Kg/Ha. The definitions as shown under Table 4 apply to Table 5.

[2] = tested on: common chickweed (Stellaria media); test: pre-emergence herbicidal activity, chickweed; conditions: 1 kg/Ha, about fourteen days, read-out: pre-emergence herbicidal activity (% control) STEME
Description: as §1, §2, §3
(§7) Rate of application of test compound is 1 kg/Ha
as §4
(§8) morningglory, STEME is chickweed, XANPE is cocklebur, ALOMY is blackgrass, […]

[3] = tested on: morningglory (Ipomea lacunosa or Ipomea hederacea); test: pre-emergence herbicidal activity, morningglory; conditions: Ipomoea, 1 kg/Ha, about fourteen days, read-out: pre-emergence herbicidal activity (% control) IPOSS
Description: as §1, §2, §3, §7, §4, §8

[4] = tested on: common cocklebur (Xanthium strumarium L.); test: post-emergence herbicidal activity, cocklebur; conditions: 1 Kg/Ha, about fourteen days, read-out: post-emergence herbicidal activity (% control) XANPE
Description: as §1, §2, §3, §4, §5, §6

[5] = tested on: velvetleaf (Abutilon theophrasti); test: pre-emergence herbicidal activity, velvetleaf; conditions: 1 kg/Ha, about fourteen days, read-out: pre-emergence herbicidal activity (% control) ABUTH
Description: as §1, §2, §3, §7, §4, §8

[6] = tested on: Johnsongrass (Sorghum halepense); test: post-emergence herbicidal activity, johnsongrass; conditions: 1 Kg/Ha, about fourteen days, read-out: post-emergence herbicidal activity (% control) SORHA
Description: as §1, §2, §3, §4, §5, §6

[7] = tested on: wheat (Triticum aestivum var. Lew); test: pre-emergence herbicidal activity, wheat; conditions: 1 kg/Ha, about fourteen days, read-out: pre-emergence herbicidal activity (% control) WHT
Description: as §1, §2, §3, §7, §4, §8

[8] = tested on: Johnsongrass (Sorghum halepense); test: pre-emergence herbicidal activity, johnsongrass; conditions: 1 kg/Ha, about fourteen days, read-out: pre-emergence herbicidal activity (% control) SORHA
Description: as §1, §2, §3, §7, §4, §8

[9] = tested on: field corn (Zea mays var. Pioneer 3732); test: post-emergence herbicidal activity, corn; conditions: 1 Kg/Ha, about fourteen days, read-out: post-emergence herbicidal activity (% control) CRN
Description: as §1, §2, §3, §4, §5, §6

[10] = tested on: field corn (Zea mays var. Pioneer 3732); test: pre-emergence herbicidal activity, corn; conditions: 1 kg/Ha, about fourteen days, read-out: pre-emergence herbicidal activity (% control) CRN
Description: as §1, §2, §3, §7, §4, §8

[11] = tested on: soybean (Glycine max -- var. Winchester); test: pre-emergence herbicidal activity, soybean; conditions: 1 kg/Ha, about fourteen days, read-out: pre-emergence herbicidal activity (% control) SOY
Description: as §1, §2, §3, §7, §4, §8

[12] = tested on: common cocklebur (Xanthium strumarium L.); test: pre-emergence herbicidal activity, cocklebur; conditions: 1 kg/Ha, about fourteen days, read-out: pre-emergence herbicidal activity (% control) XANPE
Description: as §1, §2, §3, §7, §4, §8

[13] = tested on: wheat (Triticum aestivum var. Lew); test: post-emergence herbicidal activity, wheat; conditions: 1 Kg/Ha, about fourteen days, read-out: post-emergence herbicidal activity (% control) WHT
Description: as §1, §2, §3, §4, §5, §6

[14] = tested on: velvetleaf (Abutilon theophrasti); test: post-emergence herbicidal activity, velvetleaf; conditions: 1 Kg/Ha, about fourteen days, read-out: post-emergence herbicidal activity (% control) ABUTH
Description: as §1, §2, §3, §4, §5, §6

[15] = tested on: green foxtail (Setaria viridis); test: pre-emergence herbicidal activity, green foxtail; conditions: 1 kg/Ha, about fourteen days, read-out: pre-emergence herbicidal activity (% control) SETVI
Description: as §1, §2, §3, §7, §4, §8

[16] = tested on: green foxtail (Setaria viridis); test: post-emergence herbicidal activity, green foxtail; conditions: 1 Kg/Ha, about fourteen days, read-out: post-emergence herbicidal activity (% control) SETVI
Description: as §1, §2, §3, §4, §5, §6

[17] = tested on: morningglory (Ipomea lacunosa or Ipomea hederacea); test: post-emergence herbicidal activity, morningglory; conditions: Ipomoea, 1 Kg/Ha, about fourteen days, read-out: post-emergence herbicidal activity (% control) IPOSS
Description: as §1, §2, §3, §4, §5, §6

[18] = tested on: blackgrass (Aloepecurus myosuroides); test: pre-emergence herbicidal activity, blackgrass; conditions: Alopecurus myosuroides, 1 kg/Ha, about fourteen days, read-out: pre-emergence herbicidal activity (% control) ALOMY
Description: as §1, §2, §3, §7, §4, §8

[19] = tested on: common chickweed (Stellaria media); test: post-emergence herbicidal activity, chickweed; conditions: 1 Kg/Ha, about fourteen days, read-out: post-emergence herbicidal activity (% control) STEME
Description: as §1, §2, §3, §4, §5, §6

| SMILES | activity at 1000 g/ha [1] | activity at 1000 g/ha [2] | activity at 1000 g/ha [3] | activity at 1000 g/ha [4] | activity at 1000 g/ha [5] | activity at 1000 g/ha [6] | activity at 1000 g/ha [7] | activity at 1000 g/ha [8] | activity at 1000 g/ha [9] | activity at 1000 g/ha [10] | activity at 1000 g/ha [11] | activity at 1000 g/ha [12] | activity at 1000 g/ha [13] | activity at 1000 g/ha [14] | activity at 1000 g/ha [15] | activity at 1000 g/ha [16] | activity at 1000 g/ha [17] | activity at 1000 g/ha [18] | activity at 1000 g/ha [19] |
| --- | --- | --- | --- | --- | --- | --- | --- | --- | --- | --- | --- | --- | --- | --- | --- | --- | --- | --- | --- |
| C=CCON1Cc2c(-n3c(=O)cc(C(F)(F)F)n(C)c3=O)ccc(Cl)c2C1=O [Compound 17] | 100% | 100% | 100% | 100% | 100% | 100% | 100% | 100% | 90% | 100% | 100% | 100% | 100% | 100% | 100% | 100% | 90% | – | – |
| Cn1c(C(F)(F)F)cc(=O)n(-c2ccc(Cl)c3c2CN(O)C3=O)c1=O [Compound 18] | 80% | – | 100% | 95% | 100% | 65% | 60% | 100% | 70% | 100% | 95% | 100% | 50% | 100% | 100% | 70% | 100% | – | – |
| COc1ccc(CN2Cc3c(-n4c(=O)cc(C(F)(F)F)n(C)c4=O)ccc(Cl)c3C2=O)cc1 [Compound 25] | 80% | 100% | 70% | 60% | 100% | 75% | 60% | – | 90% | 95% | 50% | 40% | 40% | 100% | 100% | 100% | 90% | 75% | 80% |
| COC(=O)CCN1Cc2c(-n3c(=O)cc(C(F)(F)F)n(C)c3=O)ccc(Cl)c2C1=O [Compound 26] | 100% | 100% | 80% | 100% | 100% | 80% | 50% | – | 95% | 80% | 100% | 100% | 70% | 100% | 80% | 100% | 80% | 80% | 100% |
| Cn1c(C(F)(F)F)cc(=O)n(-c2ccc(Cl)c3c2CN(CC(F)(F)F)C3=O)c1=O [Compound 28] | 100% | 100% | 100% | 100% | 100% | 100% | 100% | – | 100% | 100% | 100% | 100% | 100% | 100% | 100% | 100% | 100% | 100% | 100% |
| Cn1c(C(F)(F)F)cc(=O)n(-c2ccc(Cl)c3c2CN(CC2CC2)C3=O)c1=O [Compound 29] | 100% | 100% | 100% | 100% | 100% | 100% | 100% | – | 100% | 100% | 100% | 100% | 100% | 100% | 100% | 100% | 100% | 100% | 100% |
| Cn1c(C(F)(F)F)cc(=O)n(-c2ccc(Cl)c3c2CN(CC#N)C3=O)c1=O [Compound 30] | 100% | 100% | 100% | 100% | 100% | 100% | 100% | – | 95% | 100% | 100% | 100% | 60% | 100% | 100% | 100% | 100% | 100% | 100% |
| COCN1Cc2c(-n3c(=O)cc(C(F)(F)F)n(C)c3=O)ccc(Cl)c2C1=O [Compound 31] | 100% | 100% | 100% | 100% | 100% | 100% | 100% | – | 100% | 100% | 100% | 100% | 100% | 100% | 100% | 100% | 100% | 100% | 100% |
| CC(C)N1Cc2c(-n3c(=O)cc(C(F)(F)F)n(N)c3=O)ccc(Cl)c2C1=O [Compound 70] | 100% | 100% | 100% | 100% | 100% | 100% | 100% | – | 100% | 100% | 100% | 100% | 100% | 100% | 100% | 100% | 100% | 100% | 100% |
